Reference: the Kinase Knowledgebase extract (Sharma et al. 2016)

These molecules were tested against MAPK14 (human) (UniProt Q16539) (assay: Assessment of MAPK14 Kinase Activity).
Sequence of MAPK14 (human) (Q16539 whole entry, looked up): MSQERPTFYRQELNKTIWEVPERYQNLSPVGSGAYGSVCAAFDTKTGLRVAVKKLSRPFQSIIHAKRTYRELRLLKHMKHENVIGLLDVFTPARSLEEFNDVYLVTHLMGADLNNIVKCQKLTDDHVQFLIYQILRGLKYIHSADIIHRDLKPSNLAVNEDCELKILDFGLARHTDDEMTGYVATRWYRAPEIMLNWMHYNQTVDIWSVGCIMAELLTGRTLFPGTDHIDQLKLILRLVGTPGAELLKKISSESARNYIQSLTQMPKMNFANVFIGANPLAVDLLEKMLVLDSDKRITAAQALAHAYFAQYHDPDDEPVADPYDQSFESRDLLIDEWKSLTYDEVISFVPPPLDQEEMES

IC50, ≤ 1 µM:
CCOC(=O)c1sc2c(ccc(=O)n2-c2ccccc2)c1NNc1ccc(C)cc1
CCOC(=O)c1sc2c(ccc(=O)n2-c2ccccc2)c1NC(C)c1ccccc1 (centres undefined)
CCOC(=O)c1sc2c(ccc(=O)n2-c2ccccc2)c1Cc1ccccc1
NC(=O)c1sc2c(ccc(=O)n2-c2ccccc2)c1Sc1ccccc1
CCOC(=O)c1sc2c(ccc(=O)n2-c2ccccc2)c1C(O)c1cccc(C)c1 (centres undefined)
CCOC(=O)c1sc2c(ccc(=O)n2-c2ccccc2)c1NCc1ccccn1
CCOC(=O)c1sc2c(ccc(=O)n2-c2ccccc2)c1C(O)c1cccc(C)n1 (centres undefined)
CCOC(=O)c1sc2c(ccc(=O)n2-c2ccccc2)c1CCc1ccccc1
CCOC(=O)c1sc2c(ccc(=O)n2-c2ccccc2)c1S(=O)(=O)Nc1ccccc1
CCOC(=O)c1sc2c(ccc(=O)n2CC2CC2)c1C(O)c1ccccc1 (centres undefined)
CCOC(=O)c1sc2c(ccc(=O)n2-c2ccccc2)c1NC(=O)c1ccccc1
CCOC(=O)c1sc2c(ccc(=O)n2-c2ccccc2)c1NCc1ccccc1
Cc1cccc(C(O)c2c(C#N)sc3c2ccc(=O)n3-c2ccccc2)c1 (centres undefined)
N#Cc1sc2c(ccc(=O)n2-c2ccccc2)c1NCc1ccccc1
CCOC(=O)c1sc2c(ccc(=O)n2-c2ccccc2)c1NCc1c(F)cccc1F
N#Cc1sc2c(ccc(=O)n2-c2ccccc2)c1C(O)c1ccccc1 (centres undefined)
CCOC(=O)c1sc2c(ccc(=O)n2-c2ccccc2)c1Sc1ccccc1
CCOC(=O)c1sc2c(ccc(=O)n2-c2ccccc2)c1NC(=O)c1ccc(N)cc1
CCOC(=O)c1sc2c(ccc(=O)n2-c2ccccc2)c1Oc1ccccc1
CCOC(=O)c1sc2c(ccc(=O)n2-c2ccccc2)c1NS(=O)(=O)c1ccccc1
CCOC(=O)c1sc2c(ccc(=O)n2-c2ccccc2)c1C(O)c1ccccc1 (centres undefined)
CCOC(=O)c1sc2c(ccc(=O)n2-c2ccccc2)c1N(C)Cc1ccccc1
CCOC(=O)c1sc2c(ccc(=O)n2-c2ccccc2)c1Sc1cccc(C)c1
CCOC(=O)c1sc2c(ccc(=O)n2-c2ccccc2)c1C(O)c1cccc(Cl)c1 (centres undefined)
